Data: US8846376B2, “Recombinant bacterium capable of removing mercury (II) species, cadmium (II) and copper (II) in presence of other heavy metals from polluted sites, product for the bioremediation, process of obtaining the product and method of bioremediation” (Universidad Tecnica Federico Santa Maria, priority 2009, dated 2014)

Assays:
Format in all cases: cell-based
[1] = tested on: Cupriavidus metallidurans MSR33; assay: Minimum inhibitory concentration (MIC) of heavy metals in agar plates, strain MSR33; conditions: for Improved resistance (fold): MIC of MSR33 relative to CH34; for MIC, strain MSR33: agar plates, Tris mineral salts medium, increasing metal concentrations
Description: (§1) The increase of the heavy metal resistance of the novel strain Cupriavidus metallidurans MSR33 was confirmed measuring minimum inhibitory concentration (MIC) of heavy metals in agar plates containing Tris mineral salts medium supplemented with increasing heavy metal concentrations and the organomercurial compound methylmercury.

[2] = tested on: Cupriavidus metallidurans CH34; assay: Minimum inhibitory concentration (MIC) of heavy metals in agar plates, strain CH34; conditions: Tris mineral salts medium, increasing metal concentrations
Description: as §1

[3] = tested on: Cupriavidus metallidurans strain CH34; assay: Growth in Tris mineral salts medium with Hg(II) added at exponential phase, strain CH34; conditions: Hg^2+ 8 μg/g added at exponential phase, succinate
Experimental: (§2) To characterize the novel mercury resistance capabilities, the recombinant strain Cupriavidus metallidurans MSR33 was grown in minimal medium supplemented with succinate as sole carbon source and energy and in the presence or absence of mercury. Cupriavidus metallidurans strain CH34 was also grown in these conditions.
(§3) The growth of both strains is similar in absence of Hg (II).

[4] = tested on: Cupriavidus metallidurans MSR33; assay: Growth in Tris mineral salts medium with Hg(II) added at mid-exponential phase, strain MSR33; conditions: Hg(II) 8 μg/g added at mid-exponential phase, succinate
Experimental: as §2, §3

[Cd+2] [Cd^2+]
Improved resistance (fold) [1]: 1.6 fold | MIC, strain MSR33 [1]: 160 µg/g | MIC, strain CH34 ([2]; parental strain CH34): 100 µg/g

[Cu+2] [Cu^2+]
MIC, strain MSR33 [1]: 240 µg/g | MIC, strain CH34 ([2]; parental strain CH34): 240 µg/g

[Hg+2] [Hg^2+]
Improved resistance (fold) [1]: 2.4 fold | MIC, strain MSR33 [1]: 24 µg/g | MIC, strain CH34 ([2]; parental strain CH34): 10 µg/g | effect on growth of strain CH34 [3]: no further growth | effect on growth of strain MSR33 [4]: do not affect the growth

[CH3][Hg][Cl] [MeHg^+, methylmercury]
Improved resistance (fold) [1]: >18.0 fold | MIC, strain MSR33 [1]: 18 µg/g | MIC, strain CH34 ([2]; parental strain CH34): <1 µg/g | MIC, strain CH34 ([2]; parental strain CH34, listed as CH3Hg^+): sensitive
